Experimental data reported in patent publication US9809560B2, “Ligands and methods for labeling biomolecules in vivo” (Albert Einstein College of Medicine, Inc., priority 2010, dated 2017).

Experiments:
[1] = Fluorogenic kinetic assay of CuAAC of 3-azido-7-hydroxy-coumarin and propargyl alcohol; settings: 75 μM CuSO4 premixed with ligand, [ligand]:[copper] 2:1 to 6:1; within 15 min
Protocol: FIG. 1A-1C. Copper(I)-catalyzed azide-alkyne cycloaddition (CuAAC) is accelerated by Cu(I)-stabilizing ligands. (A) CuAAC of azides and terminal alkynes to form 1,4-disubstituted 1,2,3-triazoles. (B) Structures of CuAAC-accelerating ligands. (C) Conversion-time profiles of CuAAC in the presence/absence of accelerating ligands. Reaction conditions: propargyl alcohol (50 μM), 3-azido-7-hydroxy-coumarin (100 μM), CuSO4 (75 μM), 0.1 M potassium phosphate buffer (pH 7.0)/DMSO 95:5, sodium ascorbate ([…]), rt. Error bars represent the standard deviation of three replicate experiments.
Protocol for Kinetic Measurement of CuAAC of 3-azido-7-hydroxy-coumarin and Propargyl Alcohol […]
Procedure for 200 μL reactions: In a 96-well fluorescence plate, add the reagents in the following order: (1) 40 μL of 500 mM phosphate buffer pH 7.0; (2) 1.0 μL 10 mM propargyl alcohol; (3) 10 μL of DMSO; (4) 6 μL of premixed CuSO4 and ligand ([Cu]=2.5 mM); (5) 1.0 μL 20 mM coumarin-N3; (6) 20 μL of 25 mM sodium ascorbate; (7) Read fluorescence (λex=404 nm, λem=477 nm, RFU) on the Synergy plate reader.

zebrafish embryos = experiment: Imaging of fucosylated glycans in zebrafish embryos microinjected with GDP-FucAl; type: in vivo; settings: among 120 embryos microinjected with nucleotide sugar analogues and treated with click reagents, through four days post click reaction
Protocol: Zebrafish embryos at the one-cell or two-cell stage were microinjected in the yolk with 1 nL of a 20 mM solution of GDP-FucAl (or GDP-fucose) and either rhodamine-dextran (5% w/v) or phenol red (0.1% w/v) in 0.2 M KCl as a tracer. The embryos were allowed to develop to 5 hpf, at which point they were manually dechorionated. The dechorionated embryos were cultured in E3 embryo medium at 28° C. for an additional 3 h before transferring to 1% agarose-coated 96-well plates containing 92 μL embryo medium using a fire-polished wide-bore Pasteur pipette. Alexa Fluor-488 azide (100 μM from a 1.75 mM stock in H2O) was added to each well, followed by BTTES-CuSO4 or BTTA-CuSO4 6:1 complex ([Cu]=50 μM from 2.5 mM stock). […] After mounting on a slide or 50 mm glass bottom dishes (Matek) in 1.5-3% methyl cellulose and E3 medium, the embryos were ready for imaging by confocal microscopy.
To image fucosylated glycans in zebrafish embryos, GDP-FucAl was synthesized chemoenzymatically and microinjected embryos at the one-cell stage with 20 pmol of GDP-FucAl (FIG. 4B). […] Robust labeling of the treated embryos was achieved within 1-3 min reaction (FIG. 4C), and only background fluorescence was detected for control embryos microinjected with GDP-fucose (FIG. 10). […]

CC(C)(C)n1cc(CN(Cc2cn(CCOS(=O)(=O)O)nn2)Cc2cn(C(C)(C)C)nn2)nn1 [BTTES]
cycloaddition product yield [1]: > 50%
embryos with minor developmental defects (zebrafish embryos): less than twelve embryos exhibited minor developmental defects
